Results taken from patent US20200178586A1, “PEPTIDE” (FUJI OIL HOLDINGS INC., priority 2017, published 2020).
Entries after “also recorded” stand apart in the source; their conditions may differ. Marks after values point to notes of the source that are not given here. *1 amine or outer side, *2 acyl side, *3 side chain or, on linkers, in order; H or OH if unused. Where no end group is shown, it is not given here. [ ]: non-standard residue; d: D form. γGlu = O=C(O)[C@H](CCC(=O)[*:2])N[*:1]

Experiments:
[1] = Sensory evaluation of body taste-imparting effect on sweet taste solution (Example 3); conditions: Sweet taste solution (6% sucrose), 100 ppm peptide; for Initial-middle taste: average score of eight trained panelists, 5 levels, control = 3 points; for body taste-imparting effect (in words): summary of FIG. 3 and Table 2
Experimental: Sweet taste solution containing 6% sucrose was used as a control (3 points). And, sample solution was prepared by adding 100 ppm of each γ-glutamyl tripeptide to the control. As comparative controls, γ-Glu-γ-Glu-Val and γ-Glu-γ-Glu-α-Glu-Tyr were used. The panelists were eight trained panelists at Fuji Oil Holdings Inc. And, the panelist evaluated a body taste of from initial taste to middle taste with the following five levels.
(§1) 5 points: feels much stronger than the control 4 points: feels stronger than the control 3 points: feels the same as the control 2 points: feels a little weaker than the control 1 point: feels much weaker than the control

[2] = Sensory evaluation of body taste-imparting effect of γ-glutamyl peptides in umami solution and sweet taste solution (Example 2); conditions: for Initial-middle taste / Middle-after taste: average score of 7 trained panelists, 5 levels, control = 3 points; for body taste of from the initial taste to middle taste (in words) / persistence of the aftertaste (in words) / taste from the middle taste to aftertaste (in words): umami and sweet taste solutions, summary of Table 1
Experimental: Umami solution containing 0.7% MSG-0.4% NaCl and Sweet taste solution containing 6% sucrose were used as controls (3 points). And, sample solution was prepared by adding each γ-glutamyl peptide to the control. As comparative controls, γ-Glu-Val-Gly disclosed in Patent Document 1 and Patent Document 6 were used. The panelists were 7 trained panelists at Fuji Oil Holdings Inc. And, the panelist evaluated a body taste of from initial taste to middle taste, a thickness of from middle taste to aftertaste, and persistence with the following five levels.
as §1

[3] = Sweet taste solution (6% sucrose)
[4] = Umami solution (0.7% MSG-0.4% NaCl)

Substance | Initial-middle taste [1] | body taste-imparting effect (in words) [1] | other results
[γGlu][γGlu][γGlu]K | 3.1 points |  | 
[γGlu][γGlu][γGlu]P | 3.1 points |  | 
[γGlu][γGlu][γGlu]T | 2.9 points |  | 
[γGlu][γGlu][γGlu]A | 3.4 points | particularly effective | 
[γGlu][γGlu][γGlu]V | 3.4 points | particularly effective; also recorded: superior to γ-Glu-γ-Glu-Val | 
[γGlu][γGlu][γGlu]M | 3.0 points |  | 
[γGlu][γGlu][γGlu]H | 3.5* points | particularly effective | 
[γGlu]-Val-Gly [reference compound] |  |  | Initial-middle taste [2, 3]: 3.6 points; Middle-after taste [2, 3]: 4.3* points; Initial-middle taste [2, 4]: 3.6 points; Middle-after taste [2, 4]: 4.8* points; body taste of from the initial taste to middle taste (in words) [2]: imparted little body taste; persistence of the aftertaste (in words) [2]: persistent of the strong aftertaste; taste from the middle taste to aftertaste (in words) [2]: strong
[γGlu][γGlu][γGlu]G | 3.1 points |  | 
[γGlu][γGlu]EY | 3.4 points | an effect was also observed | 
[γGlu]-Tyr [reference compound] |  |  | Initial-middle taste [2, 3]: 3.5 points; Middle-after taste [2, 3]: 3.9* points; Initial-middle taste [2, 4]: 3.5 points; Middle-after taste [2, 4]: 3.9* points; body taste of from the initial taste to middle taste (in words) [2]: imparted little body taste; persistence of the aftertaste (in words) [2]: persistent of the strong aftertaste; taste from the middle taste to aftertaste (in words) [2]: strong
[γGlu][γGlu][γGlu]I | 3.4 points | particularly effective | 
[γGlu][γGlu][γGlu]W | 3.1 points |  | 
[γGlu]-[γGlu]-Val | 3.1 points |  | 
[γGlu][γGlu][γGlu]Q | 3.3 points |  | 
[γGlu][γGlu][γGlu]F | 3.4 points | particularly effective | 
[γGlu][γGlu][γGlu]Y | 4.3** points | particularly effective | Initial-middle taste [2, 3]: 4.3* points; Middle-after taste [2, 3]: 4.3* points; Initial-middle taste [2, 4]: 4.1* points; Middle-after taste [2, 4]: 4.0* points; body taste of from the initial taste to middle taste (in words) [2]: imparted the body taste overall; persistence of the aftertaste (in words) [2]: suppressed
[γGlu][γGlu][γGlu][γGlu]Y |  |  | Initial-middle taste [2, 3]: 3.9* points; Middle-after taste [2, 3]: 3.6 points; Initial-middle taste [2, 4]: 3.9* points; Middle-after taste [2, 4]: 3.7 points; body taste of from the initial taste to middle taste (in words) [2]: sufficiently imparted a body taste
[γGlu][γGlu][γGlu]D | 3.4 points | particularly effective | 
[γGlu][γGlu][γGlu]N | 3.3 points |  | 
[γGlu]-[γGlu]-Tyr |  |  | Initial-middle taste [2, 3]: 4.0* points; Middle-after taste [2, 3]: 3.7* points; Initial-middle taste [2, 4]: 4.0* points; Middle-after taste [2, 4]: 3.9* points; body taste of from the initial taste to middle taste (in words) [2]: imparted the body taste overall; persistence of the aftertaste (in words) [2]: suppressed
[γGlu][γGlu][γGlu]R | 4.1** points | particularly effective | 
[γGlu][γGlu][γGlu]L | 3.3 points | particularly effective | 
[γGlu][γGlu][γGlu]S | 3.4 points | particularly effective | 
[γGlu][γGlu][γGlu]C | 3.0 points |  | 
[γGlu][γGlu][γGlu]E | 3.5* points | particularly effective | 
